Series [1] in a line: Elimination half life in Sprague-Dawley rat at 500 mg/kg, po by LC-MS/MS analysis. Format: ADME, organism-based. The note with it: in vivo, read-out: beta t1/2.
A short description of series [2]: Elimination half life in Sprague-Dawley rat at 10 mg/kg, iv by LC-MS/MS analysis. Format: ADME, organism-based. As to conditions: in vivo, read-out: beta t1/2.

This note sets out measurements from ChEMBL document CHEMBL4190354, “A Realistic View on "The Essential Medicinal Chemistry of Curcumin"” (ACS Med Chem Lett, 2017).

`COc1cc(/C=C/C(=O)CC(=O)/C=C/c2ccc(O)c(OC)c2)ccc1O` [CURCUMIN]: the half-life was 44.5 min in series [1] and 28.1 min in series [2].
